Measurements taken from patent US8217042B2, “Pyridopyrazines and their use as modulators of kinases” (Zentaris GmbH, priority 2005, dated 2012).
Counter-ions that a name gives are not always drawn.

How the values were obtained:
Erk2 = target: T1, Erk2; experiment: Cell-free kinase assay (ALPHA technology), Erk2-ALPHA; type: biochemical; settings: 10 μM ATP, recombinant human kinase
T1 construct: in some cases as full-length kinases, in some cases as truncated fragments; purchased Upstate 14-173
Description: (§1) The inhibitory effect of the inventive compounds was tested on various human serine/threonine kinases, tyrosine kinases and lipid kinases in enzymatic assays. Recombinant human kinases, for example Erk2, PI3Kalpha, -beta, -gamma, -delta, p38alpha, p38gamma, Jnk1, Jnk2 and others were used, in some cases as full-length kinases, in some cases as truncated fragments—but at least consisting of the functional kinase domains. The commercial kinase proteins (Proqinase, Upstate) were used as recombinant fusion proteins with GST (glutathione S-transferase) tag or His tag. Depending on the substrate type, the different kinase reactions were quantified by means of suitable ALPHA™ beads (PerkinElmer).
(§2) The substrate testing on the Erk assay is described in detail below. Selected test results of the Erk2, PI3Kalpha assays are cited below. […] The kinase reaction was then stopped by adding 10 μl of the ALPHA bead mix (10 μg/ml, #6760617/PerkinElmer), pre-incubated with anti-phospho MBP antibody (320 μM, #05-429/Upstate), in 25 mM Tris, 200 mM NaCl, 100 mM EDTA and 0.3% BSA, and left to stand overnight. • b) PI3K-ALPHAs (e.g. PI3Kalpha): The test substance, 1 ng of PI3Kalpha (#14-602, Upstate), 100 μM ATP and 20 μM PIP2 substrate (#P4508, Echelon) on a 384-well Optiplate (Perkin Elmer) for 1 h in 50 mM Hepes, 50 mM NaCl, 5 mM MgCl2, 0.05% Chaps, 5 mM DTT at pH 7.4. Subsequently, the kinase reaction was stopped by adding the ALPHA bead mix (10 μg/ml, #6760603/PerkinElmer), preincubated with 1 nM GST:Grp1 fusion protein (Upstate) and 15 nM biotinylated PIP3 (#C-39B6/Echelon) in 50 mM Hepes, 50 mM NaCl, 50 mM EDTA and 0.1% BSA, and left to stand overnight.
(§3) The fluorescence was detected the next morning in a Fusion™ alpha instrument (Perkin Elmer).
(§4) The calculation of % inhibition values per substance concentration was done by means of the following formula from the raw data determined in the Fusion™ alpha:
(§5) The controls were each determined 8 times, the substance samples each twice. 0% control contained neither any ATP nor any substrate; the 100% control contained no test substance. The IC50 values were determined with GraphPadPrism.

PI3Kalpha = target: T2, PI3Kalpha (Homo sapiens, UniProt P42336); experiment: Cell-free kinase assay (ALPHA technology), PI3K-ALPHA; type: biochemical; settings: 100 μM ATP, recombinant human kinase
T2 construct: in some cases as full-length kinases, in some cases as truncated fragments; purchased Upstate 14-602
Description: as §1, §2, §3, §4, §5

Jnk1 + Jnk2 = experiment: Cell-free kinase assay (ALPHA technology), Jnk1 + Jnk2; type: biochemical; settings: at 10 μM or 100 μM* ATP, recombinant human kinases
Description: as §1, with “(PerkinElmer). […]” for “(PerkinElmer).”
as §3, §4, §5

T1 sequence (P63085 whole entry, the tested form may be a part): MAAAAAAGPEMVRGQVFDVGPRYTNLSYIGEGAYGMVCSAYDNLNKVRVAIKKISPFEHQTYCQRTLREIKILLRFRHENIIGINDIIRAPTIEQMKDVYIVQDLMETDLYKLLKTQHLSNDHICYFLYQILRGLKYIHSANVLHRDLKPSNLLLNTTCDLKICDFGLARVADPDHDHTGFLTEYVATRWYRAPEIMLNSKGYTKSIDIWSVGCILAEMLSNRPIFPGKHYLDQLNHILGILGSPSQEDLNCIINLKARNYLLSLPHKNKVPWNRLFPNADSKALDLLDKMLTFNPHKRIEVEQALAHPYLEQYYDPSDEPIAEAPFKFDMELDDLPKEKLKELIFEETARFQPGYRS
T2 sequence (P42336 whole entry, the tested form may be a part): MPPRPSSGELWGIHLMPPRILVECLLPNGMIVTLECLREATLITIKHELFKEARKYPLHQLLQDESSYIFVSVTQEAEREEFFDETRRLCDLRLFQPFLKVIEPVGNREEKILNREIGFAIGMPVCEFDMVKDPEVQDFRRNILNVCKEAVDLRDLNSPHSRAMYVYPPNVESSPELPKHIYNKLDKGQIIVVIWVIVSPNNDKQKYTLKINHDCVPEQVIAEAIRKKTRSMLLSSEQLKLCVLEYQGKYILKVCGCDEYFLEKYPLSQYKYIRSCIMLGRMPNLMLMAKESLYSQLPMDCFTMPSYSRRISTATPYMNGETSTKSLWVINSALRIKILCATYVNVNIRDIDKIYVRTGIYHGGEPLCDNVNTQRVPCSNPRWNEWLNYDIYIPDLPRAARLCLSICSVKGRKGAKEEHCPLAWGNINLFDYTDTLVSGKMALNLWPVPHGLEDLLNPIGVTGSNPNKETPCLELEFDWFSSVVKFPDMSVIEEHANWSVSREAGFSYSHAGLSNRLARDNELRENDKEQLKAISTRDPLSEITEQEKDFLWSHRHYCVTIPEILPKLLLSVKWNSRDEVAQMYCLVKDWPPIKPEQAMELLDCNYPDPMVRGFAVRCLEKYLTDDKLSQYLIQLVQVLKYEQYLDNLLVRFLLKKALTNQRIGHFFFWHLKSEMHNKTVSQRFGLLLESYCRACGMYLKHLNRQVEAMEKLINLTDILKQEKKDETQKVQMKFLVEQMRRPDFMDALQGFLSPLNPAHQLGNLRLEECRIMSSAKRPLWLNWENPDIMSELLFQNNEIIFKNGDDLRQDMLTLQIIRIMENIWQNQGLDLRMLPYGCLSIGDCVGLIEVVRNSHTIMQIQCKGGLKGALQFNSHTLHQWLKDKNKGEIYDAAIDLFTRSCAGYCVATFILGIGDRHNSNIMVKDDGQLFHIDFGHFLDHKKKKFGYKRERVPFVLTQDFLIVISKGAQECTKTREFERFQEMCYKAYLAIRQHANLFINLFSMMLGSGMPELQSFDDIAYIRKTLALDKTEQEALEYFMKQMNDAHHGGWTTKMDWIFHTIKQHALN
T2 sequence (P27986 whole entry partner, the tested form may be a part): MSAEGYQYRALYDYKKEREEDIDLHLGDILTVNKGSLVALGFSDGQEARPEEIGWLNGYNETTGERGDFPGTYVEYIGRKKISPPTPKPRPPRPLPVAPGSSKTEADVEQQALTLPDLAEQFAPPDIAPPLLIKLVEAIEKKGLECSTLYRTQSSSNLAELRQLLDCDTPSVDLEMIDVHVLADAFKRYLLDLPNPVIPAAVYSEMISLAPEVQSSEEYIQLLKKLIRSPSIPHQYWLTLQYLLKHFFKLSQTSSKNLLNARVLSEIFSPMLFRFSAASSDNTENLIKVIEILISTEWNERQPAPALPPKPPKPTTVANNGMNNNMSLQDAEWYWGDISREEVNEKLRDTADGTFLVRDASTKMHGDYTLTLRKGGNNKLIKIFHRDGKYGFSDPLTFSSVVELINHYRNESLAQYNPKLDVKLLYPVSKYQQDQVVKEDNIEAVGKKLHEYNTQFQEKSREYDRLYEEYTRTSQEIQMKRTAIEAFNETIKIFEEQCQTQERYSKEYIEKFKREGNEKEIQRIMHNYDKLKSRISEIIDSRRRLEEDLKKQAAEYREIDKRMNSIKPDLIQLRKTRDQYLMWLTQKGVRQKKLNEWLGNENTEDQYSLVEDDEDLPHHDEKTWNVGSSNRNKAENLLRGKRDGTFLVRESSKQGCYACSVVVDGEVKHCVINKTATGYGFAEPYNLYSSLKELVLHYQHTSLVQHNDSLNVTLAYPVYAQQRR

melting point | IC50 (Erk2) [nM] | IC50 (PI3Kalpha) [µM] | IC50 (Jnk1 + Jnk2) [µM] | Compound | other results
224 to 228 °C |  |  |  | CCNC(=O)Nc1ccc2ncc(-c3cccc([Si](C)(C)C)c3)nc2n1 | 
165 to 168 °C |  |  |  | COCCOC(=O)Oc1ccc(-c2cnc3ccc(NC(=O)NCCCCO)nc3n2)cc1 (as salt: hydrochloride) [Compound 58, 4-{6-[3-(4-Hydroxybutyl)urea]pyrido[2,3-b]pyrazin-3-yl}phenyl 2-methoxyethyl carbonate hydrochloride] | 
236 to 238 °C (dec.) |  |  |  | CCNC(=O)Nc1ccc2ncc(C#Cc3ccccc3)nc2n1 [Compound 1, 1-Ethyl-3-(3-phenylethynylpyrido[2,3-b]pyrazin-6-yl)urea] | 
239 to 242 °C (dec.) |  |  |  | CCNC(=O)Nc1ccc2ncc(C#Cc3ccsc3)nc2n1 [Compound 2, 1-Ethyl-3-(3-thiophen-3-ylethynylpyrido[2,3-b]pyrazin-6-yl)urea] | 
227 to 228 °C (dec.) |  |  |  | CCNC(=O)Nc1ccc2ncc(C#CC3CC3)nc2n1 [Compound 3, 1-(3-Cyclopropylethynylpyrido[2,3-b]pyrazin-6-yl)-3-ethylurea] | 
202 to 204 °C (dec.) |  |  |  | CCNC(=O)Nc1ccc2ncc(/C=C/C3CCCCC3)nc2n1 [Compound 5, 1-[3-((E)-2-Cyclohexylvinyl)pyrido[2,3-b]pyrazin-6-yl]-3-ethylurea] | 
 | 2400 | 21.3 |  | CCNC(=O)Nc1ccc2ncc(/C=C/COC)nc2n1 [Compound 6, 1-Ethyl-3-[3-((E)-3-methoxypropenyl)pyrido[2,3-b]pyrazin-6-yl]urea] | 
 |  |  | > 100 | CCNC(=O)Nc1ccc2ncc(-c3ccc(OC(=O)Oc4ccccc4)cc3)nc2n1 [Compound 11, 4-[6-(3-Ethylurea)pyrido[2,3-b]pyrazin-3-yl]phenyl phenyl carbonate] | 
 | 3400 | 4.4 | 24.2 | CCNC(=O)Nc1ccc(-c2cnc3ccc(NC(=O)NCC)nc3n2)cn1 [Compound 25, 1-Ethyl-3-{3-[6-(3-ethylurea)pyridin-3-yl]pyrido[2,3-b]pyrazin-6-yl}urea] | 
207 to 209 °C |  |  |  | CCNC(=O)Nc1ccc2ncc(CCc3ccc(F)cc3)nc2n1 [Compound 26, 1-Ethyl-3-{3-[2-(4-fluorophenyl)ethyl]pyrido[2,3-b]pyrazin-6-yl}urea] | 
217 to 219 °C |  |  |  | CCNC(=O)Nc1ccc2ncc(/C=C/c3ccc(F)cc3)nc2n1 [Compound 27, 1-Ethyl-3-{3-[(E)-2-(4-fluorophenyl)vinyl]pyrido[2,3-b]pyrazin-6-yl}urea] | 
 | 243 | 12.5 | 0.974 | COc1cc(-c2cnc3ccc(NC(=O)NCCCCP(=O)(O)O)nc3n2)ccc1O [Compound 45, (4-{3-[3-(4-Hydroxy-3-methoxyphenyl)pyrido[2,3-b]pyrazin-6-yl]urea}butyl)phosphonic acid] | 
 | 16500 | 0.677 | 20.4 | CCNC(=O)Nc1ccc2ncc(Nc3ccc(NC(C)=O)cc3)nc2n1 [Compound 53, N-{4-[6-(3-Ethylurea)pyrido[2,3-b]pyrazin-3-ylamino]phenyl}acetamide] | 
 | 812 |  |  | CCNC(=O)Nc1ccc2ncc(-c3ccc(OC(=O)OCCOC)cc3)nc2n1 [Compound 55, 4-[6-(3-Ethylurea)pyrido[2,3-b]pyrazin-3-yl]phenyl 2-methoxyethyl carbonate hydrochloride] | IC50 (PI3Kalpha; hydrochloride): 3.6 µM; IC50 (Jnk1 + Jnk2; hydrochloride): 2.9 µM
 | 763 | 4.3 | 2.5 | COCCOC(=O)Oc1ccc(-c2cnc3ccc(NC(=O)NCCCCO)nc3n2)cc1 [Compound 58, 4-{6-[3-(4-Hydroxybutyl)urea]pyrido[2,3-b]pyrazin-3-yl}phenyl 2-methoxyethyl carbonate hydrochloride] | 

Compound | melting point | IC50 (Erk2) [nM] | IC50 (PI3Kalpha) [µM] | IC50 (Jnk1 + Jnk2) [µM] | other results
CCOP(=O)(CCCCNC(=O)Nc1ccc2ncc(-c3ccc(O)c(OC)c3)nc2n1)OCC [Compound 44, Diethyl (4-{3-[3-(4-hydroxy-3-methoxyphenyl)pyrido[2,3-b]pyrazin-6-yl]urea}butyl)phosphonate] |  | 2800 | 10.7 | 8.4 | 
